# From PubChem BioAssay (NCI)
#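 1) Cells in 96-well plates. 2) Compound, 48 h, 5 concentrations. 3) Linear interpolation between surrounding doses. 4) Unreached endpoint = highest concentration. The concentration for 50% growth inhibition is given as GI50. TGI: total growth inhibition.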
# Legend:
# Assay in all cases: NCI tumour cell line growth inhibition, 48 h
# 786-0 renal = tested on: 786-0 renal
# HCT-15 colon = tested on: HCT-15 colon
# HCT-116 colon = tested on: HCT-116 colon
# SK-MEL-28 melanoma = tested on: SK-MEL-28 melanoma
# KM12 colon = tested on: KM12 colon
# LOX IMVI melanoma = tested on: LOX IMVI melanoma
# SK-MEL-2 melanoma = tested on: SK-MEL-2 melanoma
# NCI-H460 lung = tested on: NCI-H460 lung
# UACC-62 melanoma = tested on: UACC-62 melanoma
# CCRF-CEM leukemia = tested on: CCRF-CEM leukemia
Compound,TGI (786-0 renal),TGI (HCT-15 colon),TGI (HCT-116 colon),TGI (SK-MEL-28 melanoma),TGI (KM12 colon),TGI (LOX IMVI melanoma),TGI (SK-MEL-2 melanoma),TGI (NCI-H460 lung),TGI (UACC-62 melanoma),TGI (CCRF-CEM leukemia),GI50 (SK-MEL-2 melanoma),GI50 (NCI-H460 lung),GI50 (HCT-15 colon),GI50 (HCT-116 colon),GI50 (UACC-62 melanoma),GI50 (SK-MEL-28 melanoma),GI50 (KM12 colon),GI50 (CCRF-CEM leukemia),GI50 (LOX IMVI melanoma)
N#Cc1c2c(c(Nc3cccc(C(F)(F)F)c3)n3c1nc1ccccc13)CCC2,> 100 µM,> 100 µM,> 100 µM,> 100 µM,> 100 µM,> 100 µM,–,–,–,–,–,–,–,–,–,–,–,–,–
N/C(=N\S(=O)(=O)c1cccc2nsnc12)Nc1ccc(Cl)cc1,> 100 µM,> 100 µM,> 100 µM,71.8 µM,> 100 µM,85.8 µM,26.3 µM,67 µM,35.2 µM,–,–,–,–,–,–,–,–,–,–
CC(C)CCC[C@@H](C)[C@H]1CC[C@H]2[C@@H]3CC[C@H]4C[C@H](N)CC[C@]4(C)[C@H]3CC[C@]12C,> 100 µM,96.2 µM,> 100 µM,95 µM,> 100 µM,83 µM,–,> 100 µM,43.1 µM,8.5 µM,–,–,–,–,–,–,–,–,–
O=C1N(c2ccccc2)C2(c3ccccc3)CC3CCCC13S2 (centres undefined),> 100 µM,> 100 µM,> 100 µM,> 100 µM,> 100 µM,> 100 µM,80.9 µM,–,> 100 µM,> 100 µM,–,–,–,–,–,–,–,–,–
C=CCc1cc(-c2cc(CC=C)c(O)c(CNC)c2)cc(CNC)c1O,29 µM,30.2 µM,28.1 µM,34 µM,30.2 µM,27.2 µM,32.9 µM,30.1 µM,31.9 µM,57 µM,–,–,–,–,–,–,–,–,–
N#CC(c1nc2ccccc2s1)c1ncnc(Cl)c1[N+](=O)[O-] (centres undefined),42.7 µM,35.8 µM,26.4 µM,38.7 µM,> 100 µM,33.1 µM,–,47.1 µM,–,> 100 µM,–,–,–,–,–,–,–,–,–
O=S1(=O)C(c2ccccc2)C(N2CCCCC2)C1C1CC2c3ccccc3C1c1ccccc12 (centres undefined),> 100 µM,> 100 µM,> 100 µM,> 100 µM,> 100 µM,> 100 µM,> 100 µM,> 100 µM,> 100 µM,> 24.3 µM,–,–,–,–,–,–,–,–,–
COc1cc(/C=N/n2c(Cc3ccc(Cl)cc3)n[nH]c2=O)cc(OC)c1OC,> 100 µM,> 100 µM,> 100 µM,> 100 µM,> 100 µM,–,> 100 µM,> 100 µM,> 100 µM,> 100 µM,–,–,–,–,–,–,–,–,–
CC(=O)Nc1ccc(N=C2C(c3ccccc3)=C(SC3=C(c4ccccc4)C(=Nc4ccc(NC(C)=O)cc4)c4ccccc43)c3ccccc32)cc1,> 100 µM,> 100 µM,> 100 µM,> 100 µM,89.5 µM,> 100 µM,> 100 µM,> 100 µM,–,> 100 µM,–,–,–,–,–,–,–,–,–
O=C1CS(=O)(=O)C(c2cccc(Oc3ccccc3)c2)N1c1cccc(Cl)c1 (centres undefined),40.3 µM,> 100 µM,29.6 µM,> 100 µM,> 100 µM,32.1 µM,33.2 µM,41.3 µM,29.4 µM,> 100 µM,–,–,–,–,–,–,–,–,–
O=c1cc(-c2ccc(O)cc2)n(C2CC2)c2ccccc12,17.1 µM,16.8 µM,13.1 µM,–,16.2 µM,16.7 µM,8.2 µM,17.3 µM,14.8 µM,72.2 µM,–,–,–,–,–,–,–,–,–
CCN1C=C/C(=C\C=C/c2cc[n+](CC)c3ccccc23)c2ccccc21,18.2 µM,34.1 µM,13.4 µM,21.8 µM,12.4 µM,–,21.2 µM,11 µM,23.8 µM,30.9 µM,–,–,–,–,–,–,–,–,–
c1ccc(C2CC(c3cccc(Nc4ccncc4)c3)=NN2c2ccccc2)cc1 (centres undefined),–,3.18 µM,3.25 µM,3.19 µM,3.44 µM,3.05 µM,3.46 µM,3.25 µM,3.04 µM,5.68 µM,1.87 µM,1.72 µM,1.59 µM,1.66 µM,1.67 µM,1.76 µM,1.74 µM,2.09 µM,1.66 µM
Cc1ccc(NP(=O)(Oc2ccccc2)N(CCCl)CCCl)cc1 (centres undefined),–,> 100 µM,> 100 µM,> 100 µM,> 100 µM,–,> 100 µM,–,> 100 µM,–,–,–,–,–,–,–,–,–,–
O=C(C[C@H](NC(=O)OCc1ccccc1)C(=O)NC1Cc2ccccc2OC1=O)OCc1ccccc1 (some centres undefined),–,> 100 µM,76.3 µM,> 100 µM,> 100 µM,–,> 100 µM,> 100 µM,–,> 100 µM,–,–,–,–,–,–,–,–,–
CCCCCCCCCCCCCCCc1ccc(OCC(O)CO)cc1 (centres undefined),–,> 100 µM,31.3 µM,62.2 µM,31.7 µM,32.1 µM,42.7 µM,53.6 µM,48 µM,> 100 µM,–,–,–,–,–,–,–,–,–
Cn1c(-c2cccs2)cc(-c2ccccc2)c1-c1cccs1,> 100 µM,> 100 µM,> 100 µM,> 100 µM,> 100 µM,> 100 µM,> 100 µM,> 100 µM,> 100 µM,> 100 µM,–,–,–,–,–,–,–,–,–
Nc1cc2c(nnn2C2OC(COCc3ccccc3)C(OCc3ccccc3)C2OCc2ccccc2)c(=O)[nH]1 (centres undefined),> 100 µM,> 100 µM,46.9 µM,> 100 µM,54.6 µM,53.2 µM,28.3 µM,92.3 µM,38.1 µM,> 100 µM,–,–,–,–,–,–,–,–,–
CN(C)c1nc(N(C)C)nc(N(C)CN(C)c2ccc(Cl)cc2)n1,–,> 100 µM,> 100 µM,> 100 µM,> 100 µM,> 100 µM,> 100 µM,> 100 µM,> 100 µM,> 100 µM,–,–,–,–,–,–,–,–,–
CN(c1cc2ncc(=O)[nH]c2cc1NC(N)=NCc1ccc(Cl)cc1)C1CCCCC1,–,15.4 µM,12.3 µM,13.7 µM,10.9 µM,5.88 µM,18.3 µM,14.5 µM,14 µM,15.6 µM,8.83 µM,7.14 µM,8.27 µM,5.44 µM,6.8 µM,6.71 µM,4.52 µM,6.33 µM,1.75 µM
